In patent publication US20160206583A1, “AMINO ACID TREATMENT OF SEIZURES” (THE JOHNS HOPKINS UNIVERSITY, priority 2013, published 2016):

Tests used:
[1] = system: pentylenetetrazol-induced seizures; settings: Dufour et al., 1999, cited from earlier work
[2] = system: kainic acid-induced seizures; test: Kainic acid status epilepticus test; type: in vivo, mice
Description: Male NIH Swiss mice (NCI, Frederick, Md., U.S.A.) aged 3-4 weeks were acclimatized to the animal care facility for 1-5 days and housed four per cage. All mice were fed unrestricted normal rodent chow (Teklad Global 2018SX, Madison, Wis., U.S.A.). Only in experiments lasting 2 weeks, mice were fasted overnight before the D-leucine was administered in drinking water.
[…] Louis, Mo., U.S.A.) or given D-leucine in drinking water (1.5% w/v) for 13 days after an initial overnight fast. […] Louis, Mo., U.S.A.).
Each mouse was tested for seizures only once. Personnel performing seizure testing and assessments were blinded to treatment group assignments. Seizure tests were performed 3 h following a single dose of D-leucine, 15-25 min after the administration of kainic acid, or after 13 days of D-leucine exposure in drinking water.
Kainic acid was injected intraperitoneally (22.5-25 mg kainic acid/kg mouse body mass, 5.3 mg/ml PBS, Tocris Bioscience, Ellisville, Mo., U.S.A.) as described previously (Hartman et al., 2012). Mice were observed continuously in plexiglass cages for the duration of the experiment. Seizure behaviors were scored for 2 h using a modified Racine scale (the highest score in a given 5-min block was used): 0, no seizure; 1, immobility; 2, forelimb and/or tail extension; 3, automatisms; 4, forelimb clonus, rearing, and/or falling; 5, repetition of stage 4; 6, tonic-clonic seizures; and 7, death (Hartman et al., 2010). As the mouse behaviors only occur intermittently, the highest seizure score achieved in a 5 min epoch was recorded.
Probit analyses (used in the 6 Hz test to determine the current where half the mice experienced any seizure behavior, or CC50, was performed using Minitab 16 (State College, Pa., U.S.A.). The level of significance in the 6 Hz test was 0.05. T-tests and one-way ANOVAs were performed using GraphPad Prism 4 (LaJolla, Calif., U.S.A.). In the kainic acid test, one-way ANOVAs were performed for multiple comparisons of 3 treatment groups. When 2 groups were compared in the kainic acid test, the level of significance was 0.01 (because 3-4 parameters were measured simultaneously, this represents a Bonferroni correction of a typical level of significance of 0.05).

AMPA receptor = settings: hippocampal neurons; Gong et al., 2007; cited from earlier work
6 Hz-induced seizures = test: 6 Hz test; type: in vivo, mice; settings: D-leucine 1.5% w/v in drinking water for 13 days
Description: Male NIH Swiss mice (NCI, Frederick, Md., U.S.A.) aged 3-4 weeks were acclimatized to the animal care facility for 1-5 days and housed four per cage. All mice were fed unrestricted normal rodent chow (Teklad Global 2018SX, Madison, Wis., U.S.A.). Only in experiments lasting 2 weeks, mice were fasted overnight before the D-leucine was administered in drinking water. At 5 weeks of age, mice were injected intraperitoneally with D-leucine 3 mg/kg (“low dose”) or 300 mg/kg (“high dose”) body weight (Sigma-Aldrich, St. Louis, Mo., U.S.A.) or given D-leucine in drinking water (1.5% w/v) for 13 days after an initial overnight fast. […] Probit analyses (used in the 6 Hz test to determine the current where half the mice experienced any seizure behavior, or CC50, was performed using Minitab 16 (State College, Pa., U.S.A.). The level of significance in the 6 Hz test was 0.05. T-tests and one-way ANOVAs were performed using GraphPad Prism 4 (LaJolla, Calif., U.S.A.). In the kainic acid test, one-way ANOVAs were performed for multiple comparisons of 3 treatment groups. When 2 groups were compared in the kainic acid test, the level of significance was 0.01 (because 3-4 parameters were measured simultaneously, this represents a Bonferroni correction of a typical level of significance of 0.05).

[3] = system: GAERS (Genetic Absence Epilepsy Rats from Strasbourg) Wistar rats; settings: intracerebroventricular or intrathalamic routes; Koerner et al., 1996; cited from earlier work
[4] = system: maximal electroshock-induced seizures; settings: literature (Peterson, 1991; Kalinichev et al., 2010); cited from earlier work
amygdala-kindled rats = settings: dose-dependent, Loscher et al., 1994; cited from earlier work
[5] = system: picrotoxin-induced seizures; settings: rats; Skeie et al., 1994; cited from earlier work
[6] = system: hexafluorodiethyl ether seizures; settings: Gallagher, 1969; cited from earlier work
[7] = D-leucine 300 mg/kg 15 min after kainic acid (after seizure onset)
[8] = pretreatment, D-leucine 3 mg/kg i.p. 3 h before kainic acid (23.5 mg/kg)
[9] = pretreatment, D-leucine 300 mg/kg i.p. 3 h before kainic acid (23.5 mg/kg)
[10] = D-serine 3 mg/kg 15 min after kainic acid
[11] = D-serine 300 mg/kg 15 min after kainic acid
[12] = CBIO 10 mg/kg 15 min after kainic acid
[13] = pretreatment, CBIO 10 mg/kg three hours prior to kainic acid

CC(C)CC(=O)C(=O)O [α-ketoisocaproic acid]
activity in the PTZ test [1]: not active

CC(C)C[C@@H](N)C(=O)O [D-leucine]
protection against seizures induced by kainic acid ([2]; D-leucine 3 mg/kg 15 min after the onset of seizures (FIGS. 4C-4D)): protects against seizures | seizure outcome compared with diazepam (10 mg/kg) ([2]; D-leucine 3 mg/kg 20 min after kainic acid (25 mg/kg)): not inferior to treatment with diazepam | mean seizure score [2, 7]: no effect | number of epochs with a seizure score ≧2 [2, 7]: decreased | maximum seizure score ([2]; D-leucine 300 mg/kg 15 min after kainic acid (after seizure onset), trend noted): no effect | protection against seizures ([2]; pretreatment, D-leucine 0.3 mg/kg 3 h before kainic acid (23.5 mg/kg)): did not protect against seizures | mean seizure score [2, 8]: decreased | number of epochs with a seizure stage ≧2 [2, 8]: decreased | maximum seizure score ([2]; pretreatment, D-leucine 0.3, 3 or 300 mg/kg vs water, 3 h before kainic acid): no difference between groups | latency to onset of seizure stage ≧2 [2, 9]: prolonged | mean seizure score [2, 9]: decreased | number of epochs with a seizure stage ≧2 [2, 9]: decreased | kainic acid-induced AMPA receptor-mediated current (AMPA receptor): inactive | CC50 (current where half of mice had a convulsion) (6 Hz-induced seizures): increased

N[C@H](CO)C(=O)O [D-serine]
effect on spike wave discharges [3]: no effect | maximum seizure score [2, 10]: decrease | mean seizure score [2, 10]: decrease | number of epochs with a seizure stage ≧2 [2, 10]: decrease | maximum seizure score [2, 11]: no effect | mean seizure score [2, 11]: decrease | number of epochs with a seizure stage ≧2 [2, 11]: decrease | kainic acid-induced AMPA receptor-mediated current (AMPA receptor): inhibits | protection against maximal electroshock-induced seizures [4]: weak but statistically significant protection | after discharge thresholds (amygdala-kindled rats): increases

Oc1noc2ccc(Cl)cc12 [CBIO, 5-chloro-benzo[d]isoxazol-3-ol]
maximum seizure score [2, 12]: no effect | mean seizure score [2, 12]: decrease | number of epochs with a seizure stage ≧2 [2, 12]: decrease | latency to seizure stage ≧2 [2, 13]: no effect | maximum seizure score [2, 13]: no effect | mean seizure score [2, 13]: decreased | number of epochs with a seizure stage ≧2 [2, 13]: decreased

CC(C)C[C@H](N)C(=O)O [L-leucine]
protection against picrotoxin-induced seizures [5]: protects | protection against hexafluorodiethyl ether seizures [6]: not | protection against pentylenetetrazol-induced seizures ([1]; rats): protects
